The source of these data is ChEMBL document CHEMBL1201862, “PubChem BioAssay data set” (2004).

As a reminder, the AC50 is the concentration at which the activity in the assay is half-maximal.

Each structure is given as a SMILES string. Active and inactive are the calls of the source.

The target in experiment [1] is T1, Corticotropin-releasing factor receptor 2/Corticotropin-releasing factor-binding protein (Homo sapiens, UniProt P24387+Q13324).
T1 sequence (Q13324 whole entry): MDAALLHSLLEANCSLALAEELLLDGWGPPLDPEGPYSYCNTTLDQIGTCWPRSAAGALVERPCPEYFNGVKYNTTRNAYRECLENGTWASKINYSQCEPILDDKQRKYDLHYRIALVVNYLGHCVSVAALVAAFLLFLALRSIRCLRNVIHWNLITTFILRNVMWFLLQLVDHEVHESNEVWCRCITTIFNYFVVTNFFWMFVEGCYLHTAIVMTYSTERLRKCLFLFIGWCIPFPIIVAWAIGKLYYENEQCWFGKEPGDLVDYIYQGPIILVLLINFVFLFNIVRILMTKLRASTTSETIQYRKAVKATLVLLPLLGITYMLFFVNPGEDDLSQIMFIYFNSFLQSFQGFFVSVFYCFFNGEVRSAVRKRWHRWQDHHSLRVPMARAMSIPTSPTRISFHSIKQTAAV
T1 sequence (P24387 whole entry): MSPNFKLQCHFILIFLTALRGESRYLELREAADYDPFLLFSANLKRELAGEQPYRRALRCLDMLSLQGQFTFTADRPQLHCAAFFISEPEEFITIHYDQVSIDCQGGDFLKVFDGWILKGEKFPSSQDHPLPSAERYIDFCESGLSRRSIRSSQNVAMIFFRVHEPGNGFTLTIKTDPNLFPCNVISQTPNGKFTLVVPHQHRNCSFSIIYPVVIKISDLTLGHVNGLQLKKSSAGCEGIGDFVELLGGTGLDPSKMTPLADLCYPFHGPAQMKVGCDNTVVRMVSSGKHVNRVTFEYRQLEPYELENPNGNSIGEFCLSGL
Description: activators of CRF receptor 2 with binding protein – uHTS hits, confirmation (AID 602473). Type of experiment: functional. Particulars: read-out: EC50_Mean.

Experiment [2] has as its target T1, Corticotropin-releasing factor receptor 2/Corticotropin-releasing factor-binding protein. Description: Dose Response confirmation of uHTS hits for small molecule antagonists of the CRF-binding protein and CRF-R2 receptor complex. Type of experiment: functional. Particulars: read-out: IC50_Mean.
Experiment [3] addresses FAD-linked sulfhydryl oxidase ALR (Homo sapiens, UniProt P55789). Description: ALR-catalysed DTT oxidation blockers – biochemical, H2O2 detection, luminescence, cherry-pick, dose response (AID 493248).
Experiment [4] addresses T2, Heat shock factor protein 1 (Mus musculus, UniProt P38532).
T2 sequence (P38532 whole entry): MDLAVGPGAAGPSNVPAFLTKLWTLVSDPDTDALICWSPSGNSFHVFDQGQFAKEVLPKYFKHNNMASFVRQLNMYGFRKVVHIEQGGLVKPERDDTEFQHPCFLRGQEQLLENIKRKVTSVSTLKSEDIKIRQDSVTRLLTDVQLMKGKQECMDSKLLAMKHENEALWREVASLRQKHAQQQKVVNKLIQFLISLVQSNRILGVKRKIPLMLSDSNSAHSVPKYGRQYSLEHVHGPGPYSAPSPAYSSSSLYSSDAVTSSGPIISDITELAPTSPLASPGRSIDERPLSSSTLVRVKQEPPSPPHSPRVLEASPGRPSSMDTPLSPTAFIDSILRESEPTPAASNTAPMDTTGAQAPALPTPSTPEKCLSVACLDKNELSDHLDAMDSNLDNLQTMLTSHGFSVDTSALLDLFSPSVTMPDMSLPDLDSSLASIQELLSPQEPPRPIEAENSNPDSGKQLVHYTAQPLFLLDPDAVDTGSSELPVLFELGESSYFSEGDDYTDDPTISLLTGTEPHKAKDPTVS
As to the kind of experiment: decrease of HSF1-responsive luciferase luminescence – cell-based, NIH3T3, dose retest, confirmation (AID 2382).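 Note: NIH3T3 fibroblasts with HSF1-driven luciferase reporter stressed by proteasome inhibitor MG132; luminescence from HSF1-driven luciferase expression after 8 hours of MG132 stress.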 In kind it is functional.

The target of experiment [5] is T3, Rac GTPase-activating protein 1 (Homo sapiens, UniProt Q9H0H5).
T3 sequence (Q9H0H5 whole entry): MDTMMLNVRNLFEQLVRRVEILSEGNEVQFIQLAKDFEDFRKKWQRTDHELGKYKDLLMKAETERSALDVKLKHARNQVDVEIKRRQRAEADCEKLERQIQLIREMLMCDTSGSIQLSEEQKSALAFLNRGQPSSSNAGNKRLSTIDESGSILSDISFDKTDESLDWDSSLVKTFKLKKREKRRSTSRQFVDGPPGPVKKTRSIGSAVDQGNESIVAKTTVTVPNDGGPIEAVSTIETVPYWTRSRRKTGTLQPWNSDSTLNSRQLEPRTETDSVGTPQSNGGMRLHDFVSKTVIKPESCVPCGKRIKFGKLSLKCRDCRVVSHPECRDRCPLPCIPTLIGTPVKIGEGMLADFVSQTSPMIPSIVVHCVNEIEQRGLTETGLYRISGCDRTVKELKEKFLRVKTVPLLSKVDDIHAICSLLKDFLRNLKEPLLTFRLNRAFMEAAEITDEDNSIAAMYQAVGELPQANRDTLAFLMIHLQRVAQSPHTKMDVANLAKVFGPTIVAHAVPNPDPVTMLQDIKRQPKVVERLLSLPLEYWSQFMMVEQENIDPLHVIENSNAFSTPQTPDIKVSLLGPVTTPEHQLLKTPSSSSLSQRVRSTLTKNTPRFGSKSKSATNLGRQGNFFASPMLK
Description: blockers of MgcRacGAP-driven Rac1 GTP hydrolysis – biochemical, ADP Hunter fluorescence, primary and confirmatory, confirmation (AID 624330). Type of experiment: functional.

Experiment [6] can be described thus: NIH-3T3 fibroblast cytotoxicity, dose response, cytotoxicity control, cell-based, fluorescence, Alamar Blue, secondary assay (AID 2327).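 Note: NIH-3T3 mouse fibroblasts cultured with fluconazole at 8 µg/mL.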 Type of experiment: functional. (In general: Resazurin is reduced to fluorescent resorufin, in cell work by metabolically active cells.)
Experiment [7] concerns INS1. Description: INS-1E survival protection against cytokine death – cell-based, luminescence, retest, dose response (AID 449756).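 Note: cell death triggered by IL-1 beta plus TNF-alpha plus IFN-gamma mixture; protective hits raise ATP signal compared with cytokine alone wells.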 Type of experiment: functional. To be noted: Rattus norvegicus.
The target of experiment [8] is Cytochrome P450 3A4 (Homo sapiens, UniProt P08684).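 Note: CYP3A4 tested as one member of a cytochrome P450 panel screen.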
Cytochrome P450 3A4, sequence (P08684 whole entry): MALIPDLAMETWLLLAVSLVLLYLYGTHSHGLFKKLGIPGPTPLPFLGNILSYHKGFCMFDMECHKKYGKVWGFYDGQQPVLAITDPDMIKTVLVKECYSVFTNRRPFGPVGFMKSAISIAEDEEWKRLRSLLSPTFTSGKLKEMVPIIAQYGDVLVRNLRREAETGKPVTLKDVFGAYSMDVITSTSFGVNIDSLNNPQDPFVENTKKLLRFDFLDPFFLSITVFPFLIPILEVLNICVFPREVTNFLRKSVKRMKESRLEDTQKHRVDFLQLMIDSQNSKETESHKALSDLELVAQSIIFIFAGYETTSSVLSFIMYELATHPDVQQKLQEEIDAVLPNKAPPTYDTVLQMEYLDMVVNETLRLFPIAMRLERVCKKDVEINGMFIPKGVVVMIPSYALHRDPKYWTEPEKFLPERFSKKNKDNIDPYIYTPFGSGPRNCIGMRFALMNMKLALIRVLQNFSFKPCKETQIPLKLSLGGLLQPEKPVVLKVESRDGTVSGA
Experiment [9] concerns the target Cytochrome P450 2C9 (Homo sapiens, UniProt P11712).
The target in experiment [10] is Cytochrome P450 2C19 (Homo sapiens, UniProt P33261). Description: Cytochrome panel assay with activity outcomes. Panel member name: p450-cyp2c19 Compounds with AC50 equal or less than 10 uM are considered active. To be noted: read-out: AC50. Type of experiment: functional.
Cytochrome P450 2C19, sequence (P33261 whole entry): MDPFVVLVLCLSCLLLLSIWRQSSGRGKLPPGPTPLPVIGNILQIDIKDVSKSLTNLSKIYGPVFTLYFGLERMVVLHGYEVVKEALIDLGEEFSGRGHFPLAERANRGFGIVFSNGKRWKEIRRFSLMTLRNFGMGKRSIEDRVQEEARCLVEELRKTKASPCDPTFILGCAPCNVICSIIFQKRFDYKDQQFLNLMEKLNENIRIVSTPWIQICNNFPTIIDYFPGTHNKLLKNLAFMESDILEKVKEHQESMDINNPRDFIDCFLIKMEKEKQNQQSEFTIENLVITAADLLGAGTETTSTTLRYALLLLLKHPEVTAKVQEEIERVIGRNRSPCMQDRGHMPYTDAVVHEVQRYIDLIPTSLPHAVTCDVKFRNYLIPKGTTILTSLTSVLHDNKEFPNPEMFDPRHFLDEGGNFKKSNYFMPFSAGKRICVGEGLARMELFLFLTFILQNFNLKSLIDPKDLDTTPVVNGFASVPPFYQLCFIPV

FAD-linked sulfhydryl oxidase ALR, sequence (P55789 whole entry): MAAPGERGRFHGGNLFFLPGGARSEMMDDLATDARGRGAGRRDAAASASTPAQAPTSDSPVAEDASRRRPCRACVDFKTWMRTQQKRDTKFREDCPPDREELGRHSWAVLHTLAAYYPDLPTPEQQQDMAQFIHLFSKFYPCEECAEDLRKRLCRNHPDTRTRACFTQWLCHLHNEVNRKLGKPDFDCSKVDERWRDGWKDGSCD
Cytochrome P450 2C9, sequence (P11712 whole entry): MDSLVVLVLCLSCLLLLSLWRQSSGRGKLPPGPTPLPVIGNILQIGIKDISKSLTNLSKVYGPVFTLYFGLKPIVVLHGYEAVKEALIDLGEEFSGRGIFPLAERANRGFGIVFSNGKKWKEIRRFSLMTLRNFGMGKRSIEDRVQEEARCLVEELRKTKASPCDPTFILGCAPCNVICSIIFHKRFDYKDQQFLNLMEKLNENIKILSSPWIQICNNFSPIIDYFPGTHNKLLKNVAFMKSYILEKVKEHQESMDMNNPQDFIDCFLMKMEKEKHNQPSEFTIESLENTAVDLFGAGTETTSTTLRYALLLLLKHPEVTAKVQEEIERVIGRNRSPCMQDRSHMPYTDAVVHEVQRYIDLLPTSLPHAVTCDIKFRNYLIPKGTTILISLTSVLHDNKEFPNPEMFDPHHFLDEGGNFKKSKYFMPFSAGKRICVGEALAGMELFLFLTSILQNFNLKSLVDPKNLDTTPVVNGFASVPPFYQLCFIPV

Turning to `COc1ccc(C(C)=O)cc1CSc1nnc2c(Cl)cc(Cl)cn12`, the EC50 in experiment [1] is > 53 µM (inactive). Besides, in experiment [2], the IC50 was > 47.1 µM (inactive).
For `Cc1ccc(S(=O)(=O)CCC(=O)Nc2cc(Cl)ccc2-n2cncn2)cc1`, in that order: > 53 µM (inactive) and > 47.1 µM (inactive).
As for `Cc1nc(SCc2ccc(C(=O)O)cc2)nc2c1CCCC2`, the AC50 in experiment [3] is 3.29 µM (active).
The same measure, in the same setting: to `O=C1CCC(C(=O)Nc2ccccc2N2CCCC2)=NN1` belongs 3.7 µM (active); to `COc1cc(OC)cc(C(=O)N2CCN=C2SCc2cccnc2)c1`, 0.154 µM (active).
Turning to `O=C(Nc1ccccc1N1CCCCC1)C1CCN(C(=O)c2ccc(Cl)cc2)CC1`, the values for the EC50 in [1] and in [4] were > 53 µM (inactive) and > 195 µM (not active), respectively. Moreover, the IC50 in [2] was > 47.1 µM (inactive).
Consider `O=C(CN1CCN(C(=O)c2ccco2)CC1)Nc1c2c(nc3c1CCC3)CCCC2`, for which the EC50 in experiment [1] was > 53 µM (inactive). Also, the IC50 in [2] was > 47.1 µM (inactive).
`Cc1ccc(NC(=O)CCC(=O)N/N=C/c2ccc(O)cc2)cc1`: in experiment [5], the IC50 was 51.4 µM (active).
Regarding `CCC(C)C(=O)Nc1nnc(SCC(=O)NC(C)(C)C)s1` (stereo not given), the EC50 in experiment [1] is > 53 µM (inactive). The IC50 in experiment [2] was > 47.1 µM (inactive).
For the molecule `Cc1nnc(SCC(=O)N(C)c2c(N)n(Cc3ccccc3)c(=O)[nH]c2=O)n1Cc1ccccc1`, the EC50 in experiment [1] is > 53 µM (inactive). The IC50 in [2] is > 47.1 µM (inactive).
In the case of `COc1ccccc1CNc1ncc(-c2ccccc2)n1C`, the IC50 in [5] is 49.5 µM (active).
Consider `COc1ccc(C2=CSC3=NNC4(CCCCC4)NN23)cc1`, for which, in experiment [3], the AC50 is 1.42 µM (active). Further, in [6], the EC50 was 38.8 µM (active).
Consider `Oc1ccc(/C=N/NC(=S)NCc2ccco2)cc1`, for which the IC50 in experiment [5] was 35.3 µM (active).
As for `Cc1ccccc1CNC(=O)Nc1cccs1`, the EC50 in experiment [1] was > 53 µM (inactive). Besides, the IC50 in experiment [2] is > 47.1 µM (inactive).
As for `CCN(CC)c1ccc(/C=N/Nc2nc(C)cc(C)n2)c(O)c1`, in experiment [7], the AC50 was 2.84 µM (active). The IC50 in [5] is 62.8 µM (active).
For the molecule `O=C(CN1CCCc2ccccc21)N/N=C/c1ccc(O)cc1O`, in [3], the AC50 was 2.35 µM (active).
Consider `COc1cccc(/C=N/NC(=O)NC2CCCCC2)c1O`, for which the AC50 in experiment [3] is 3.71 µM (active).
For the molecule `Cc1ccc(CNC(=O)CN(c2ccc(C)cc2)S(=O)(=O)c2c(C)nn(C)c2C)cc1`, the EC50 in experiment [1] was > 53 µM (inactive). In [2], the IC50 was > 47.1 µM (inactive).
For the molecule `COc1cc(/C=N/NC(=O)c2cc(-c3ccc4c(c3)OCO4)[nH]n2)ccc1O`, the AC50 in [3] was 0.408 µM (active).
Regarding `CC(=O)N1N=C(C)CC1c1ccc(OCc2ccccc2)cc1` (stereo not given), the EC50 in experiment [1] is > 53 µM (inactive). Moreover, in [2], the IC50 is > 47.1 µM (inactive).
For `Cc1ccc(-c2nn(C)c(=O)c3ccccc23)cc1CO`, in that order: > 53 µM (inactive) and > 47.1 µM (inactive).
As for `COc1cc(-c2ccc(N)c(OC)c2)ccc1N`, in experiment [5], the IC50 was 9 µM (active).
Take `COc1ccc(C2NC(=O)CS2)cc1OC` (stereo not given): the AC50 in experiment [3] was 0.093 µM (active).
On the same count and under the same terms, under `C/C(=N\NC(=O)c1ccc(N/N=C(\C)c2ccncc2)cc1)c1ccncc1` stands 0.107 µM (active).
Take `Cn1c(=O)oc2cc(S(=O)(=O)NCCC(=O)NCc3ccc(F)cc3)ccc21`: the EC50 in [1] was > 53 µM (inactive). Further, the IC50 in experiment [2] was > 47.1 µM (inactive).
With `CC(C)c1ccc(NC(=S)NN2CCOCC2)cc1`, in [1], the EC50 was > 53 µM (inactive). The IC50 in experiment [2] was > 47.1 µM (inactive).
On to `CC1(c2ccccc2)NC(=O)N(CC(=O)Nc2ccc(S(=O)(=O)Nc3ncccn3)cc2)C1=O` (stereo not given), for which the AC50 in experiment [3] was 0.675 µM (active).
Consider `COc1cc(/C=N/Nc2cc(C)nc(NS(=O)(=O)c3ccccc3)n2)ccc1O`, for which, in [5], the IC50 was 37.8 µM (active).
On to `COc1cc(CNc2ccc(C)c(C)c2)cc(OC)c1OC`, for which the AC50 in experiment [3] was 9.13 µM (active).
`CC(=O)NC(C)C(c1cccs1)N1CCN(c2ccccc2)CC1` (stereo not given): the AC50 was 39.8 µM (inconclusive) in experiment [8], 11.2 µM (inconclusive) in [9], 0.273 µM (active) in experiment [3] and 3.98 µM (inconclusive) in [10].
In the case of `CSc1ccc(CN2CCN(Cc3ccccc3Cl)CC2)cc1`, the IC50 in [5] was 95.1 µM (active).
Still for that read-out and setting: under `COc1cc(-c2cc(C(=O)O)c3c(OC)c(OC)c(OC)cc3n2)ccc1O` stands 126 µM (active).
`Cc1noc(C)c1S(=O)(=O)N1CCC(C(=O)N2CCN(c3ccc(F)cc3)CC2)CC1`: in experiment [1], the EC50 is > 53 µM (inactive). Further, in experiment [2], the IC50 is > 47.1 µM (inactive).
For `O=C(COc1ccccc1F)N1CCN(CCN2C(=O)c3cccc4cccc(c34)C2=O)CC1`, in that order: > 53 µM (inactive) and > 47.1 µM (inactive).
Take `CCN1C(=O)c2cccc3c(S(=O)(=O)Nc4ccc(O)c(C(=O)O)c4)ccc1c23`: the AC50 in experiment [3] was 1.55 µM (active).
As for `CCN(CC)c1ccc(NC(=O)COC(=O)CCc2cc(OC)c(OC)c(OC)c2)cc1`, the IC50 in experiment [5] was 81.1 µM (active).
`COc1ccc(NC(=O)CC2C(=O)Nc3ccccc3N2CC(=O)N2CCCC2)cc1` (stereo not given): the AC50 in [3] is 6.65 µM (active).
As for `CCOc1cc(/C=C(\C#N)C(=O)NCc2cccnc2)ccc1O`, the IC50 in experiment [5] was 42.4 µM (active).
As for `CC(=O)C1=C(C)N=C(S)NC1c1cc([N+](=O)[O-])ccc1O` (stereo not given), the EC50 in [1] is > 53 µM (inactive). The IC50 in experiment [2] was > 47.1 µM (inactive).
For `C=CCn1c(SCc2ccc(F)cc2)nc2c1c(=O)[nH]c(=O)n2C`, in that order: > 53 µM (inactive) and > 47.1 µM (inactive).
As to `CCCS(=O)(=O)N1CCN(C2Cc3ccccc3C2)CC1`, the IC50 in experiment [5] is 180 µM (active).
As for `CC(=O)Oc1cc2oc(=O)cc(C)c2cc1Cl`, the AC50 in experiment [3] was 2.62 µM (active).
For `CN(C)CCNC(C(=O)Nc1cccc(C(F)(F)F)c1)c1ccccc1` (stereo not given), the IC50 in [5] was 76.5 µM (active).
